Test system: zebrafish EECs (Trpa1)
Experiment: In vivo EEC calcium, Tg(neurod1:Gcamp6f) zebrafish
Conditions: trpa1b-dependent
Experimental: To record in vivo EEC activity using the Tg(neurod1:Gcamp6f) system, a published protocol with slight modification (Ye et al., 2019) was used. In brief, unanesthetized zebrafish larvae were gently mounted in 3% methylcellulose. Excess water was removed and zebrafish larvae were gently positioned with right side up. Zebrafish were then moved onto an upright Leica M205 FA fluorescence stereomicroscope equipped with a Leica DFC 365FX camera. The zebrafish larvae were allowed to recover for 2 mins before 100 μL of test agent was pipetted directly in front of the mouth region. Images were then recorded every 10 seconds. The data shown in FIG. 2O-R, depicting the EEC responses to E. tarda stimulation, were obtained by mounting unanesthetized zebrafish larvae in 1% low melting agarose. A window (5×5 mm) was cut to expose the head region of the zebrafish. 10 μL of E. tarda culture [˜10^9 Colony Forming Unit (CFU)] were delivered at the zebrafish mouth area. Images were recorded every 10 secs for 20 mins. Image processing and analysis were performed using FIJI software. Time-lapse fluorescence images were first aligned to correct for experimental drift using the plugin “align slices in stack.” Normalized correlation coefficient matching and bilinear interpolation methods for subpixel translation were used for aligning slices (Tseng et al., 2012). The plugin “rolling ball background subtraction” with the rolling ball radius=10 pixels was used to remove the large spatial variation of background intensities. The Gcamp6f fluorescence intensity in the intestinal region was then calculated for each time point. The ratio of maximum fluorescence (Fmax) and the initial fluorescence (F0) was used to measure EEC calcium responses.
For EEC Trpa1 activation using the Optovin platform, zebrafish larvae were treated with 10 μM Optovin overnight. Following Optovin treatment, unanesthetized zebrafish were mounted in 1% LMA and imaged under a 780 upright Zeiss confocal microscope using 20× water objective lenses. For all the experiments, the mid-intestine region was imaged (FIG. 10D). The intestinal epithelium was selected as the region of interest (ROI) (FIG. 10A). Serial images were obtained at 1 s/frame. A 405 nm pulse of light was applied to the ROI at 1 pulse/10 s. For some experiments (FIG. 7D-F, FIG. 10B-G), the images were obtained at 10 s/frame. When measuring Optovin effects on intestinal motility in ret−/−, sox10−/− or tph1b−/− zebrafish larvae, embryos were collected from heterozygous zebrafish. ret−/− zebrafish were identified by lack of ENS and deflated swim bladder (Knight et al., 2011), sox10−/− zebrafish were identified by lack of pigment (Rolig et al., 2017), and tph1b−/− zebrafish were identified by PCR-based genotyping (Tornini et al., 2017).
To determine whether Optovin-UV or ChR2 was sufficient to activate EECs, Tg(neurod1:Gcamp6f) zebrafish were used. […] The Gcamp6f signal was recorded with 488 nm laser intensity less than 0.5. The zebrafish intestinal motility is quantified through recorded image series of zebrafish intestine using the method similar as previously described (Ganz et al., 2018). […] When calculating the mean velocity, only the mean velocity magnitude was calculated, which therefore doesn't account for the movement direction. The MTrackJ FIJI plugin was used to quantify the mean velocity magnitude (Meijering et al., 2012).

## c1ccc2[nH]ccc2c1 [Indole]
  Zebrafish EEC activation (Gcamp6f fluorescence): strongly activated

From patent publication US20230149355A1, “COMPOSITIONS AND METHODS FOR MODULATING TRP CHANNEL ACTIVITY” (priority 2020, published 2023)
